According to US20100322887A1, “HAIR NOURISHING COSMETIC” (SHOWA DENKO K.K., priority 2008, published 2010):

How the values were obtained:
[1] = test system: male C3H/HeN Sic mice; test: Hair regrowth promotion test using mouse; type: in vivo; details: after 20 days
Method: 15 male C3H/HeN Sic 7-week old mice in the resting stage of the hair cycle had their hair at the back part shorn off carefully with an electric hair clipper and an electric shaver. These mice were divided into three groups each containing 5 mice. To the skin of the shorn part of each mouse in one group, 0.1 ml of a test sample shown in the following Table 4 was applied once a day, and to the skin of the shorn part of each mouse in another group, a base was applied in the same amount. The residual group in which nothing had been applied was regarded as an untreated control.
After 20 days from the beginning of the experiments, the back part of each mouse was photographed. By the use of an image analyzing software (Image-J), a ratio of the area where the hair had regrown to the whole area of the hair shorn part was calculated, and the resulting ratio was regarded as a hair regrowth ratio. The hair regrowth ratio of each mouse was calculated, and statistical analysis of the hair regrowth ratio of each group was carried out. The results are shown in FIG. 1 and the following Table 5.

[2] = Solubility in water; details: normal temperature

tetrapotassium ubiquinol-1,4-diphosphate
Hair regrowth ratio (%) Average ([1]; 0.1 ml once a day on shorn back skin, in Macrogol 400:Macrogol 4000 = 9:1 base, n=5): 58.45%
hair regrowth ratio (in words) ([1]; test sample group): tendency of enhancement

COC1=C(OC)C(=O)C(C/C=C(\C)CC/C=C(\C)CC/C=C(\C)CC/C=C(\C)CC/C=C(\C)CC/C=C(\C)CC/C=C(\C)CC/C=C(\C)CC/C=C(\C)CCC=C(C)C)=C(C)C1=O [ubiquinone]
solubility in water [2]: less than 100 ppm
